We go through 7 compounds from PMC6099102, “Effect of the Nature of Donor Atoms on the Thermodynamic, Kinetic and Relaxation Properties of Mn(II) Complexes Formed With Some Trisubstituted 12-Membered Macrocyclic Ligands” (Frontiers in Chemistry, 2018).

Data set [1] is described as follows: Dissociation kinetics of the Mn(II) complexes (acid catalyzed dissociation, metal or ligand exchange reactions). The data set is classed as physicochemical. The settings on record: I = 0.15 M NaCl, 25 °C; for t1/2 0.1 M HCl: half-life of dissociation calculated for 0.1 M H+; for t1/2 pH = 7.4 cM = 10^−5 M: half-life of dissociation calculated for pH 7.4, 10 μM exchanging metal ion. The method, then: The dissociation reactions were followed by UV-vis spectrophotometry at 269 nm for the pyclen derivatives or at 300 nm for other complexes in the pH range of 3.6–5.0 for the exchange reactions with Cu(II) and up to pH = 6.0 when Zn(II) was used as a ligand scavenger. The acid catalyzed dissociation reactions were performed in the HCl concentration range of 0.05–1.0 M. The concentration of the complexes in the samples was 0.25 mM, while the concentration of the exchanging metal ion in the metal initiated transchelation reactions was 10–40 times higher to ensure pseudo-first-order conditions. Relaxometry was used to follow the transchelation reactions of [Mn(DOTAM)]^2+, [Mn(DO3AM^H)]^2+, [Mn(DO3A)]^−, [Mn(PCTA)]^− and [Mn(ODO3A)]^− with Cu(II)/Zn(II) ions in the pH range of 3.6–5.5 (Figures S17–S19 in Supplementary Material). The concentration of the complexes in these samples was set to 1.0–2.0 mM to achieve relatively large change during the dissociation reaction. […] The temperature was maintained at 25 °C and the ionic strength of the solutions was kept constant at 0.15 M with NaCl. N,N′-dimethyl- (DMP) and N-methyl-piperazine (NMP) buffers (log K2H = 4.18 and 4.90 at 25 °C and I = 0.15 M NaCl, respectively) were used at 0.05 M concentration to keep the pH constant. The pseudo-first-order rate constants (kobs) were calculated by fitting the absorbance or relaxivity-time data pairs to Equation (1) (1) Xt=(X0-Xe)e^-kobst+Xe where Xt, X0, and Xe are the absorbance or relaxivity at time t, at the start and at equilibrium, respectively. The calculations were performed with the computer program Micromath Scientist, version 2.0 (Salt Lake City, UT, USA) using a standard least-squares procedure.
The kinetic inertness of the Mn(II) complexes is the other important parameter for the complexes considered for use in vivo. The inertness of Mn(II) complexes formed with trisubstituted 12-memberd macrocyclic ligands were characterized either by studying the rates of acid catalyzed dissociation or by studying transmetallation reactions occurring between the complexes and a suitable exchanging metal ion such as Zn(II) or Cu(II). The demetallation reactions of labile complexes were performed at high pH by following the ligand exchange reactions with trans-CDTA and DTPA ligands. The demetallation reactions were studied in the presence of a large Cu(II)/Zn(II)/trans-CDTA/DTPA excess or by using high acid concentration in order to ensure pseudo-first-order conditions (Equation 6). Scheme 1 outlines all the possible dissociation pathways for the Mn(II) complexes. […] The reactions of the released Mn(II) and L ligand with the exchanging L' and M' reactants are assumed to be very rapid.
The rate of dissociation can be expressed by the Equation (6), where kobs is the pseudo-first-order rate constant and [Mn(L)]t is the total concentration of the species containing [Mn(L)] complex. The [Mn(L)]t will differ slightly depending on the experimental conditions (in the presence of a large metal or ligand excess). As [Mn(L)]t = [Mn(L)] + [Mn(HL)] + [Mn(H2L)] + [Mn(L)M] + [Mn(L)(L')] + [Mn(HL)(L')] for reactions performed at high pH (in the pH range of 3.0–5.0 often applied in Cu(II) exchange reactions) will involve fewer protonated species while the acid catalyzed dissociation reactions run in the strongly acidic media (0.1–1.0 M acid concentration range) predominantly contain protonated species ([Mn(L)]t = [Mn(L)]+[Mn(HL)]+[Mn(H2L)]). (6) -d[MnL]t/dt=kobs[MnL]t
By taking into account the various complex species and the possible reaction pathways as well as the protonation and stability constants of the reactive intermediates, the following equation (Equation 7) can be derived to describe the rates of dissociation. […]

Data set [2] can be described thus: Longitudinal water proton relaxivity (r1p) of the Mn(II) complexes. Format: physicochemical. On the procedure: The relaxometric data were collected using a Bruker Minispec MQ20 NMR relaxometer. […] A datapoint plotted on figures represents an average of 5–6 T1 measurements (Figures S3–S9 in Supplementary Material). The data were fitted by using the molar r1p relaxivity value of the MnCl2 ([…] at 0.49 T and 25 °C). The equilibrium constants were calculated using the PSEQUAD program (Zékány and Nagypál, [1985]).
The longitudinal water proton relaxation rates (r1 = 1/T1-1/Tw) were measured at 20 MHz with a Bruker Minispec MQ-20 relaxometer (Bruker Biospin, Germany). Samples were thermostated by using a circulating water bath at 25.0 ± 0.2 °C. The longitudinal relaxation times (T1) were measured by the inversion-recovery method (180° − τ − 90°), averaging 5–6 data points collected for each concentration point obtained from 14 different τ values (τ values ranging between 0 to at least 6 times the expected T1). The relaxivity of the complexes was determined by titrating a nearly 1.0 mM ligand solution with a Mn(II) stock solution at pH = 7.22–7.43 (50 mM HEPES buffer, I = 0.15 M NaCl, 25 °C). Under these conditions, the only Mn(II) ion containing species present in solution is the [Mn(L)], which was supported by the r1 vs. pH profiles. The relaxivity of the complex was determined as the slope of the strait line obtained by plotting 1/T1p values as a function of Mn(II) concentration for samples with [Ligand] > [Mn(II)]. The relaxivity of [Mn(DOTP)]^6− and [Mn(DO3P)]^4− was determined in the pH range of 10.0–11.0 and 8.5–9.3, respectively where mainly the [Mn(DO3P)]^4− and [Mn(DOTP)]^6− complex exists in solution (Figures S4 and S9 in Supplementary Material).
The relaxivity (r1p, mM^−1s^−1) is defined as the longitudinal water proton relaxation rate in a solution containing 1.0 mM concentration of the paramagnetic species. It characterizes the efficiency of a paramagnetic metal chelate to enhance the solvent proton relaxation rate at a given magnetic field (usually 20 MHz) and temperature. The inner-sphere contribution to relaxivity is directly proportional to the number of metal bound water molecules (q), and therefore, relaxivity values may provide some useful information on the hydration state of paramagnetic complexes of similar molecular weights and electronic relaxation times. […] The r1p values of the Mn(II) complexes formed with heptadentate 12-membered macrocyclic ligands were determined at 0.5 T field strength and 25 °C and reported in Table 4 along with some relaxivity data published for the complexes of hexa-, hepta- and octadentate ligands. […] Below these pH ranges the phosphonate moieties undergo protonation, which further increases the relaxivity (2.60–2.90 mM^−1s^−1 values were observed near pH = 7.4, see Supplementary Material). Similar increase in the relaxivity (to 3.20 mM^−1s^−1 at 20 MHz, 37 °C) is observed for the [Mn(DOTA)]^2− complex upon its protonation and formation of the thermodynamically stable diprotonated [Mn(H2DOTA)] complex that exists as a non-hydrated chelate both in solution and in the solid state (Wang and Westmoreland, [2009]). The relaxivity of the diprotonated species at t → 0 time point was determined from the extrapolation of the relaxivity vs. time data collected after acidification of the samples containing the complexes. The X-ray crystallographic structure of [Mn(H2DOTA)] indicates the protonation of two trans carboxylate moieties (e.g., the coordination around the metal ion is similar to that observed in [Mn(trans-DO2A)] as determined by DFT calculations). Thus, the relaxivity of the diprotonated [Mn(H2DOTA)] and [Mn(H2DOTMA)] complexes is expected to be similar to that of [Mn(trans-DO2A)] (when q = 0). The value obtained by us is considerably higher, which highlights the importance of prototropic exchange as a useful tool to improve the relaxivity of the complexes (however, it has to be underlined that the protonation of the complex generally leads to a decrease in kinetic inertness).

The conditions of data set [3]: cited from earlier work.
[4] abbreviates: 0.5 T field strength, 25 °C and pH = 7.4.
The mark [5] stands for this setting: ligand exchange reaction with trans-CDTA^4− or DTPA^5− in the pH range 8-9.5.

Where two headings read alike, the source gives them in different places.

For the compound `NC(=O)CN1CCN(CC(N)=O)Cc2cccc(n2)CN(CC(N)=O)CC1.[Mn+2]` [[Mn(PC3AM^H)]^2+], in data set [1], the “k1 (proton-assisted dissociation)” value is “(1.07 ± 0.01) × 10^−2 M^−1s^−1” and the “t1/2 0.1 M HCl” value was 10.8 min. The compound further displayed a r1p in data set [2] (setting [4]) of 1.21 mM⁻¹ s⁻¹.

On to `O=P([O-])([O-])CN1CCNCCN(CP(=O)([O-])[O-])CCN(CP(=O)([O-])[O-])CC1.[Mn+2]` [[Mn(DO3P)]^4−], for which, in data set [1], the “t1/2 pH = 7.4 cM = 10^−5 M” value is recorded as 3 × 10^−3 h. Further, in data set [1] (setting [5]), the “k1 (proton-assisted dissociation)” value is “(2.4 ± 0.2) × 10^5 M^−1s^−1” and the “k2 (proton-assisted dissociation)” value is listed as “(2.2 ± 0.3) × 10^14 M^−2s^−1”. Moreover, the r1p in data set [2] (0.5 T, 25 °C, determined in the pH range of 8.5–9.3) was 2.23^[b] mM^−1s^−1. For the same compound, in data set [2] (near pH = 7.4, protonated phosphonate moieties), the relaxivity was 2.60 to 2.90 mM⁻¹ s⁻¹.

With `O=C([O-])CN1CCOCCN(CC(=O)[O-])CCN(CC(=O)[O-])CC1.[Mn+2]` [[Mn(ODO3A)]^−], in data set [1], the “k1 (proton-assisted dissociation)” value came to 27 ± 2 M⁻¹ s⁻¹, the “k2 (proton-assisted dissociation)” value is “(1.5 ± 0.3) × 10^5 M^−2s^−1” and the “t1/2 pH = 7.4 cM = 10^−5 M” value is given as 1.8 × 10^2 h. Also, in data set [2] (setting [4]), the r1p was determined as 1.40 mM⁻¹ s⁻¹.

Turning to `O=C([O-])CNC(=O)CN1CCN(CC(=O)NCC(=O)[O-])Cc2cccc(n2)CN(CC(=O)NCC(=O)[O-])CC1.[Mn+2]` [[Mn(PC3AM^Gly)]^−], the “t1/2 0.1 M HCl” value in data set [1] is 5.83 min. Further, the “k1 (proton-assisted dissociation)” value in data set [1] (proton-assisted dissociation of the [Mn(H3L)] complex) was “(1.64 ± 0.02) × 10^−2[c] M^−1s^−1”. For the same compound, the “k0 (spontaneous dissociation)” value in data set [1] (spontaneous dissociation of the [Mn(H3L)] complex) was “(3.4 ± 0.2) × 10^−4[c] s^−1”. The r1p in data set [2] (setting [4]) amounted to 1.44 mM⁻¹ s⁻¹.

With `O=C([O-])CN1CCNCCN(CC(=O)[O-])CCN(CC(=O)[O-])CC1.[Mn+2]` [[Mn(DO3A)]^−], in data set [1], the “k1 (proton-assisted dissociation)” value is 0.45 ± 0.03 M⁻¹ s⁻¹, the “k2 (proton-assisted dissociation)” value is reported as “(3.2 ± 0.3) × 10^2 M^−2s^−1” and the “t1/2 pH = 7.4 cM = 10^−5 M” value was 1.1 × 10^4 h. The same compound showed a r1p in data set [2] (setting [4]) of 1.18 to 1.31 mM⁻¹ s⁻¹. Also, the r1p in data set [3] (ref Rolla et al. ([2013])) was 1.30 mM⁻¹ s⁻¹.

On to `NC(=O)CN1CCN(CC(N)=O)CCN(CC(N)=O)CCN(CC(N)=O)CC1.[Mn+2]` [[Mn(DOTAM)]^2+], for which, in data set [1], the “k1 (proton-assisted dissociation)” value was “(1.6 ± 0.03) × 10^−2 M^−1s^−1” and the “t1/2 0.1 M HCl” value was 7.17 min. Besides, in data set [2] (setting [4]), the r1p was determined as 1.11 mM⁻¹ s⁻¹. Besides, the r1p in data set [3] (0.5 T field strength (20 MHz) and 37 °C, ref Wang and Westmoreland ([2009])) was 0.96 mM⁻¹ s⁻¹.

Turning to `NC(=O)CN1CCNCCN(CC(N)=O)CCN(CC(N)=O)CC1.[Mn+2]` [[Mn(DO3AM^H)]^2+], in data set [1], the “k1 (proton-assisted dissociation)” value is 0.94 ± 0.02 M⁻¹ s⁻¹, the “t1/2 0.1 M HCl” value was 0.123 min and the “t1/2 pH = 7.4 cM = 10^−5 M” value is reported as 5.2 × 10^3 h. In addition, the r1p in data set [2] (setting [4]) worked out at 1.33 mM⁻¹ s⁻¹.
